In patent US4737506A, “Anti-arteriosclerotic pyridyl or imidazolyl derivatives of carbonyloxyalkyl hantzsch esters” (Kowa Co., Ltd., priority 1984, dated 1988):

Tested on: thromboxane B2 (TXB2) formation
Assay: Percent inhibition against thromboxane B2 (TXB2) formation in collagen-stimulated PRP from mice after oral administration (RIA)
Assay type: in vivo, ddY male mouse
Conditions: Mus musculus, blood collected 1 hour later, 12.5 μg/ml collagen, TXB2 5 minutes later; for inhibition at 30 mg/kg: 30 mg/kg oral; for inhibition at 100 mg/kg: 100 mg/kg oral
Procedure: Using a ddY male mouse having a body weight of 35-40 g, one of the representative compounds of this invention was administered orally. One hour later, citrated blood was collected. PRP (platelet-rich plasma) was separated. Aggregation of platelets by the addition of 12.5 μg/ml of collagen was observed by an aggregometer. The amount of thromboxane B2 (a stable metabolite of thromboxane A2) formed 5 minutes later in the liquid reaction mixture was measured by the RIA method. Results are shown in Table 1, in terms of percent inhibition against the formation of thromboxane B2 (TXB2).

Compound | inhibition at 30 mg/kg [%] | inhibition at 100 mg/kg [%]
CCOC(=O)C1=C(C)NC(C)=C(C(=O)OCCOC(=O)c2ccc(OCCn3ccnc3)cc2)C1c1cccc([N+](=O)[O-])c1 (stereo not shown) [Ex. 2, 3-Ethyl 5-[2-[4-[2-(1-imidazolyl)-ethoxy]-benzoyloxy]-ethyl]2,6-dimethyl-4-(3-nitrophenyl)-1,4-dihydropyridine-3,5-dicarboxylate] | 42 | 72
CCOC(=O)C1=C(C)NC(C)=C(C(=O)OCCCOC(=O)c2ccc(OCCn3ccnc3)cc2)C1c1cccc([N+](=O)[O-])c1 (stereo not shown) [Ex. 6, 3-Ethyl 5-[3-[4-[2-(1-imidazolyl)ethoxyl]benzoyloxy]propyl]2,6-dimethyl-4-(3-nitrophenyl)-1,4-dihydropyridine-3,5-dicarboxylate] | 74 | 95
COC(=O)C1=C(C)NC(C)=C(C(=O)OCCOC(=O)C=Cc2ccc(Cn3ccnc3)cc2)C1c1cccc([N+](=O)[O-])c1 (stereo not shown) [Ex. 8, 3-Methyl 5-[2-[3-[4-(1-imidazolylmethyl)-phenyl]acryloyloxy]ethyl]2,6-dimethyl-4-(3-nitrophenyl)-1,4-dihydropyridine-3,5-dicarboxylate] | 60 | 72
COC(=O)C1=C(C)NC(C)=C(C(=O)OCCOC(=O)C=Cc2ccc(Cn3ccnc3)cc2)C1c1ccccc1F (stereo not shown) [Ex. 14, 3-Methyl 5-[2-[3-[4-(1-imidazolylmethyl)phenyl]acryloyloxy]ethyl]2,6-dimethyl-4-(2-fluorophenyl)-1,4-dihydropyridine-3,5-dicarboxylate] | 52 | 83
COC(=O)C1=C(C)NC(C)=C(C(=O)OCCOC(=O)c2ccc(OCCn3ccnc3)cc2)C1c1cccc(Cl)c1Cl (stereo not shown) [Ex. 16, 3-Methyl 5-[2-[4-[2-(1-imidazolyl)ethoxy]-benzoyloxy]ethyl]2,6-dimethyl-4-(2,3-dichlorophenyl)-1,4-dihydropyridine-3,5-dicarboxylate] | 75 | 94
